The values below come from ChEMBL document CHEMBL1687870, “Antimicrobial isopropenyl-dihydrofuranoisoflavones from Crotalaria lachnophora” (2011).

In one experiment the test system is Klebsiella pneumoniae. Put plainly: Antimicrobial activity against Klebsiella pneumoniae DSM 681 at 1 ug/ul after 24 hrs by disk diffusion method. Format: functional. A general note: Agar diffusion results depend on both activity and mobility in agar.
Another experiment concerns Aspergillus niger. In words: Antifungal activity against Aspergillus niger DSM 1988 after 48 hrs by disk diffusion method. Format: functional, organism-based.
A further experiment has as its system Pseudomonas aeruginosa. Put plainly: Antimicrobial activity against Pseudomonas aeruginosa DSM 1128 at 1 ug/ul after 24 hrs by disk diffusion method. Format: functional.
In a further experiment the test system is Escherichia coli. In words: Antimicrobial activity against Escherichia coli DSM 682 after 24 hrs by disk diffusion method. The format is functional.
A further experiment deals with Candida albicans. In words: Antifungal activity against Candida albicans DSM 1386 after 24 hrs by disk diffusion method. Format: functional, organism-based.
The subject of another experiment is Staphylococcus aureus. Put plainly: Antimicrobial activity against Staphylococcus aureus DSM 799 at 1 ug/ul after 24 hrs by disk diffusion method. The format is functional.

Calls of active or inactive are those of the source. The rule behind the calls is not given here.

Turning to `COc1cc(O)c2c(c1)OC[C@H](c1ccc(O)cc1OC)C2=O` [CAJANOL], the “diameter of the inhibition zone (DIZ)” value was found to be 9.3 mm in the experiment on Klebsiella pneumoniae and 7.3 mm with Escherichia coli. Also, the result in the experiment with Aspergillus niger, in the experiment on Pseudomonas aeruginosa, with Candida albicans and with Staphylococcus aureus was inactive.

Turning to `CN[C@@H]1[C@H](O[C@H]2[C@H](O[C@H]3[C@H](O)[C@@H](O)[C@H](N=C(N)N)[C@@H](O)[C@@H]3N=C(N)N)O[C@@H](C)[C@]2(O)C=O)O[C@@H](CO)[C@H](O)[C@H]1O` [STREPTOMYCIN], the entries for the “diameter of the inhibition zone (DIZ)” value in the experiment with Klebsiella pneumoniae and in the experiment with Escherichia coli were 21.3 mm and 19.3 mm, respectively. Also, the outcome in the experiment with Pseudomonas aeruginosa and in the experiment with Staphylococcus aureus was inactive.

Take `O=c1c(-c2ccc(O)cc2O)coc2cc(O)cc(O)c12`: the “diameter of the inhibition zone (DIZ)” value in the experiment with Klebsiella pneumoniae and in the experiment with Escherichia coli was 7 mm throughout. Further, the result with Aspergillus niger, in the experiment with Pseudomonas aeruginosa, in the experiment with Candida albicans and in the experiment with Staphylococcus aureus was inactive.

`C=C(C)[C@H]1Cc2c(cc3occ(-c4ccc(O)cc4)c(=O)c3c2O)O1` [LICOAGROISOFLAVONE]: the “diameter of the inhibition zone (DIZ)” value with Klebsiella pneumoniae was determined as 9.3 mm; in the experiment on Escherichia coli, 7.3 mm. For the same compound, the outcome in the experiment with Aspergillus niger, with Pseudomonas aeruginosa, in the experiment on Candida albicans and with Staphylococcus aureus was inactive.

For the compound `CC1(C)S[C@@H]2[C@H](NC(=O)[C@H](N)c3ccccc3)C(=O)N2[C@H]1C(=O)O` [AMPICILLIN], the “diameter of the inhibition zone (DIZ)” value with Klebsiella pneumoniae was determined as 11.7 mm; in the experiment on Escherichia coli it was 24.3 mm. Moreover, the result with Pseudomonas aeruginosa and in the experiment on Staphylococcus aureus was inactive.

On to `C=C(C)C1Cc2c(O)cc3occ(-c4ccc(O)cc4O)c(=O)c3c2O1` (racemic), for which the entries for the “diameter of the inhibition zone (DIZ)” value in the experiment with Klebsiella pneumoniae and in the experiment with Escherichia coli were 7 mm and 8.3 mm, respectively. Further, the outcome in the experiment with Aspergillus niger, in the experiment with Pseudomonas aeruginosa, in the experiment on Candida albicans and with Staphylococcus aureus was inactive.

On to GENTAMICIN, for which the inhibition zone (IZ) with Klebsiella pneumoniae turned out to be 14.3 mm; with Pseudomonas aeruginosa, 20.3 mm; in the experiment on Escherichia coli, 16.3 mm; in the experiment with Staphylococcus aureus, 15.3 mm.

As for `C=C(C)C1Cc2c(cc3oc4oc5cc(O)ccc5c4c(=O)c3c2O)O1` (stereo unspecified) [LACHNOISOFLAVONE B], the figures for the “diameter of the inhibition zone (DIZ)” value in the experiment on Klebsiella pneumoniae and in the experiment with Escherichia coli were 7.3 mm and 7 mm, respectively. Moreover, the outcome in the experiment with Aspergillus niger, with Pseudomonas aeruginosa, in the experiment with Candida albicans and in the experiment with Staphylococcus aureus was inactive.

For the compound `COc1cc(O)c2c(=O)c(-c3ccc(O)cc3)coc2c1` [PRUNETIN], the figures for the “diameter of the inhibition zone (DIZ)” value with Klebsiella pneumoniae and with Escherichia coli were 9.3 mm and 7.3 mm, respectively. Moreover, the result in the experiment with Aspergillus niger, with Pseudomonas aeruginosa, in the experiment on Candida albicans and in the experiment with Staphylococcus aureus was inactive.

With `CN(C)[C@@H]1C(O)=C(C(N)=O)C(=O)[C@@]2(O)C(O)=C3C(=O)c4c(O)cccc4[C@@](C)(O)[C@H]3C[C@@H]12` [TETRACYCLINE], the “diameter of the inhibition zone (DIZ)” value in the experiment with Klebsiella pneumoniae is listed as 26.3 mm; with Pseudomonas aeruginosa, 17.7 mm; with Escherichia coli it was 22.3 mm; in the experiment with Staphylococcus aureus, 20.7 mm.

`COc1cc(-c2coc3cc(O)cc(O)c3c2=O)ccc1O` [3'-O-METHYLOROBOL]: the results for the “diameter of the inhibition zone (DIZ)” value in the experiment on Klebsiella pneumoniae and in the experiment with Escherichia coli were 8.3 mm and 7 mm, respectively. Further, the result in the experiment on Aspergillus niger, in the experiment with Pseudomonas aeruginosa, in the experiment on Candida albicans and in the experiment on Staphylococcus aureus was inactive.

For `COc1cc(O)c2c(=O)c(-c3ccc(O)cc3O)coc2c1` [CAJANIN], the figures for the “diameter of the inhibition zone (DIZ)” value in the experiment on Klebsiella pneumoniae and in the experiment on Escherichia coli were 9.7 mm and 7.3 mm, respectively. Moreover, the result with Aspergillus niger, in the experiment on Pseudomonas aeruginosa, with Candida albicans and in the experiment on Staphylococcus aureus was inactive.

On to `C[C@@H]1O[C@@H](Oc2cc(O)c3c(=O)cc(-c4ccc(O)c(O)c4)oc3c2)[C@H](O)[C@H](O)[C@H]1O`, for which the “diameter of the inhibition zone (DIZ)” value in the experiment on Klebsiella pneumoniae is reported as 7.7 mm; in the experiment with Escherichia coli, 10.7 mm. Moreover, the result in the experiment with Aspergillus niger, in the experiment on Pseudomonas aeruginosa, in the experiment with Candida albicans and in the experiment on Staphylococcus aureus was inactive.

As for `COc1cc2occ(-c3ccc(O)cc3)c(=O)c2c(O)c1OC` [7-O-METHYLTECTORIGENIN], the “diameter of the inhibition zone (DIZ)” value in the experiment on Klebsiella pneumoniae came to 7 mm; in the experiment with Escherichia coli, 9.3 mm. Further, the outcome with Aspergillus niger, in the experiment on Pseudomonas aeruginosa, in the experiment with Candida albicans and in the experiment with Staphylococcus aureus was inactive.
